How the values were obtained:
SLE serum antibody = experiment: ELISA for antibody reactivity of SLE sera to carb-/cit-/native LL37 and carb-REV, and its correlation with SLEDAI; format: binding, human; conditions: for Antibody reactivity in SLE patients with renal damage versus without renal damage: N=6 with and N=44 without renal damage, Mann-Whitney, Figure S3 panel a P 0.047
Description: Anti-native LL37/cit-LL37/carb-LL37 antibodies were measured as described. Briefly, 96-well flat-bottom plates (Non-Binding surface polystyrene, Corning, Glendale, AZ USA) were coated with 2 μg/mL of native LL37, cit-LL37 or carb-LL37 in carbonate buffer (0.1 M NaHCHO3, pH 9) for 2 h (or overnight) and washed four times with PBS plus 0.1% Tween-20. This washing buffer was used for washing at all steps. The blocking buffer containing 2% bovine serum albumin (BSA, Sigma) in PBS was used for at least 1 h (or overnight) to saturate unspecific binding sites. After washing, sera were diluted at various concentrations (usually at 1:100 or 1:200) in PBS + 2% BSA followed by 1 h incubation with a horseradish peroxidase–conjugated (HRP) goat anti-human IgG (Sigma-Aldrich), diluted 1:10,000 in PBS. The color was developed for 5 min with 3,3′,5,5′-tetramethylbenzidine (TMB) substrate (Sigma-Aldrich). The reaction was stopped by adding 50 μL of 2 N H2SO4 and absorbance determined at 450 nm with a reference wavelength of 540 nm. Responses were considered positive when the OD measured exceeded the mean OD values measured in healthy donors’ plasma plus two standard deviations (+2SD), calculated on the HD group values, as described.
Differences between mean values were assessed by Wilcoxon’s matched-pair signed rank test, to compare responses to antigens and control antigens in the same donor. We used Mann-Whitney test for comparison of T-cell and antibody responses between groups of patients and HD. Statistical significance was set at p < 0.05. Correlation analyses were performed by Spearman’s rank-correlation test. Data were analyzed by GraphPad Prism 7.0 or SPSS software.

SLE CD4 T-cells (CXCR5) = experiment: CXCR5 (TFH marker) expression on stimulated CD4 T-cells, flow cytometry; format: cell-based, human
Source text: Antibodies to CD4, CD8, CD3 conjugated with various fluorochromes (FITC, phycoerythrin (PE), peridinin-chlorophyll-protein (PerCp), allophycocyanin (APC), PE-Cy7) were from BD Biosciences or eBiosciences (San Diego, CA). For further LL37-specific T-cell characterization and B-cell characterization we used: APC-Cy7-CXCR5 (FAB190), APC or PE-CD38, CD19, CD20, CD27, antibodies, purchased from BD Biosciences, eBiosciences, Novus Biologicals (Littleton, CO), R&D (Minneapolis, MN). Appropriate isotype-matched controls were purchased from the same companies. PerCp-7-AAD was from BD Pharmingen, DAPI from Invitrogen (Thermo Fisher, Carlsbad, CA, USA).
PBMCs were purified from EDTA-treated blood, on Ficoll-Hypaque (Pharmacia Fine Chemicals, Uppsala, Sweden) and were incubated (10^5 cells/well) in 96-well-flat-bottom-microplates (BD) in T-cell-medium (RPMI 1640, 10% heat-inactivated human serum, HS, Gibco), 2 mM L-glutamine, 10 U/mL penicillin and 100 μg/mL streptomycin), with/without peptides. We performed assays on fresh cells, within 1-to-3 h from collection or on PBMCs frozen in 90% FCS−10% DMSO, whose viability we assessed by Trypan blue exclusion, with an inverted microscope. Recovery of live cells was between 65 and 85% of the frozen number. At day 3 and 5, BrdU was added (1 μg/mL). BrdU-incorporation was detected by APC-labeled anti-BrdU antibody (BD Pharmingen), after surface staining for CD4, CD3, CD8 and analyzed by flow cytometry (Gallios, BeckmanCoulter, Brea, CA, USA). Internal control for T-cell viability and proliferation was PHA treatment (2 μg/mL). SI for proliferation was calculated by dividing percent of BrdU-staining in the presence of each peptide antigen (LL37, carb-LL37, cit-LL37, LL37 reverse, REV; cit-LL37 reverse, cit-REV; carb-LL37 reverse, carb-REV) by the percent obtained in the untreated cells. SI for proliferation was considered positive when the values of percent of BrdU positive cells was three times higher than the values obtained with the control peptides (SI > 3). Assays were repeated twice with each patient. In rare cases in which background proliferation (culture with REV, cit-REV, carb-REV), exceeded antigen-specific proliferation (that is response to LL37, carb-LL37, cit-LL37), the assay was repeated three times. Concomitant phenotype analysis of LL37-responder T-cells included staining for CD3, CD4, CD8, CXCR5 (CXCR5 was assessed on BrdU/CD3/CD4-positive cells).

[1] = system: native LL37-P1-specific T-cells (HLA-DRB1*1501 tetramer); experiment: Peptide-MHC-tetramer staining of T-cells after PBMC stimulation; format: cell-based, human
Description: Peptide-MHC-tetramers were from ImmunAware (Denmark). Staining was performed for 40 min with 1microL of tetramer suspension at 37 °C, followed by staining for CD4 (4 °C, 20 min), without washing. After incubation with anti-CD4 antibody, cells were washed, resuspended in PBS and kept at 4 °C. Before flow cytometry-acquisition, cells were labeled with PercP-conjugated 7-AAD to exclude dead cells. The peptide-MHC-tetramers used in this study are: the HLA-DR15-P1: tetramer of HLA-DRB1*1501 LLGDFFRKSKEKIGK (corresponding to the first aa at the NH2-term of the mature native LL37), (PE-conjugated) and the control peptide-MHC-tetramer called DR15-ctr: tetramer of HLA-DRB1*1501 […]1-169-185 (PE-conjugated). The other couple of peptide-MHC-tetramers used were HLA-DRB5*0101 loaded with the same LL37 epitope as above and the control tetramer HLA-DRB5*0101 loaded with the control epitope PVSKMRMATPLLMQA (CLIP-derived).

[2] = 7 days carb-LL37 stimulation, control tetramer, tetramer/CXCR5 plots
[3] = 7 days carb-LL37 stimulation, tetramer loaded with native LL37 epitope P1, tetramer/CXCR5 plots

Row | Substance | Antibody reactivity in SLE patients with renal damage versus without renal damage (SLE serum antibody; ELISA) | Correlation of antibody reactivity with SLEDAI (SLE serum antibody; Spearman) | SLE patients showing an antibody response to the antigen (SLE serum antibody; ELISA, 2 μg/mL coated antigen, sera 1:100 or 1:200, OD 450 nm, positive: OD > mean HD + 2SD, carb-LL37 28 of 45, carb-REV 8 of 47 SLE patients) | SLE serum antibody reactivity (OD) compared to healthy donors (SLE serum antibody; ELISA, OD, Mann-Whitney's test) | Correlation of anti-carb-LL37 with anti-cit-LL37 antibody reactivity (SLE serum antibody; Spearman, Figure 2c) | Correlation of anti-carb-LL37 with anti-native LL37 antibody reactivity (SLE serum antibody; Spearman, Figure 2d left) | Correlation of CXCR5 fold-increase with anti-native LL37 antibody response (SLE CD4 T-cells (CXCR5); Spearman, Figure 4e) | Correlation of T-cell proliferation with CXCR5 up-regulation (SLE CD4 T-cells (CXCR5); Spearman, Figure 3d) | CXCR5 up-regulation on antigen-specific T-cells (SLE CD4 T-cells (CXCR5); fold-increase with respect to T-cells proliferating to control carb-REV) | CXCR5-positive cells among total CD3+CD4+ cells (SLE CD4 T-cells (CXCR5); representative plot, Figure S5b left panels) | CXCR5-positive cells among CD3+CD4+BrdU+ cells (SLE CD4 T-cells (CXCR5); representative plot, Figure S5b middle panels) | CXCR5-positive cells among CD3+CD4+BrdU- cells (SLE CD4 T-cells (CXCR5); representative plot, Figure S5b right panels) | Percent printed first in Figure S7b plot (gate not recoverable from text) [1, 2] | Percent printed second in Figure S7b plot (gate not recoverable from text) [1, 2] | Percent printed third in Figure S7b plot (gate not recoverable from text) [1, 2] | Percent printed second in Figure S7a plot (gate not recoverable from text) [1, 3] | Percent printed third in Figure S7a plot (gate not recoverable from text) [1, 3] | CXCR5 expression on LL37-specific (tetramer-positive) T-cells ([1]; SLE PBMC stimulated, Figure 5d) | Expansion of T-cells specific for the native LL37 epitope ([1]; SLE PBMC, tetramer staining, versus control tetramer)
1 | LLGDFFR(cit)KSKEKIGKEFKR(cit)IVQR(cit)IKDFLR(cit)NLVPR(cit)TES [cit-LL37, LL37 citrullinated at all five arginine sites] | non-significant anti-cit- and anti-native-LL37 antibody increase | both responses also correlated with SLEDAI |  |  |  |  |  |  |  |  |  |  |  |  |  |  |  |  | 
2 | L*LGDFFRK*SK*EK*IGKEFK*RIVQRIK*DFLRNLVPRTES [carb-LL37] | significantly higher anti-carb-LL37 antibody reactivity | A significant correlation was appreciated | 62% | significant SLE serum antibody reactivity | correlated significantly with anti-cit-LL37 antibody reactivity | less but still in a significant manner | significantly correlated | positive and significance correlation | up-regulation of the TFH cell marker CXCR5 | 8.95% | 39.4% | 3.08% | 0.0% | 0.19% | 0.01% | 2.00% | 2.20% | variable but significant expression of the TFH marker CXCR5 | expansion of T-cells specific for the native LL37 epitope

From publication PMC7915858, “Complementary Effects of Carbamylated and Citrullinated LL37 in Autoimmunity and Inflammation in Systemic Lupus Erythematosus” (International Journal of Molecular Sciences, 2021)
